Reference: US20040034107A1, “Ubiquinone Qn for the treatment of pain” (MSE Pharmazeutika GmbH, priority 1999, published 2004)

Experiments:
[1] = treatment of migraine pain with Q-10; type: in vivo
Procedure: The substances to be used according to the invention can be preferably employed for the treatment of pain which is caused by migraine, dialysis, herpes zoster, cancer, diabetic neuropathy, or generalized pain conditions. The treatment can be done by administration in oral, parenteral, local, inhalative or intranasal form. The kind of administration must be adapted to the pain condition to be treated. […] Good results were achieved already with doses of about 20 mg.
Due to the low dose which is already effective for treating migraine pain, the ubiquinone Qn or its precursors are preferably used in the form of a spray, preferably a nasal spray, according to the invention.

[2] = local treatment of herpes zoster pain; type: in vivo; conditions: local application in the form of creams or gels
Text: In the case of herpes zoster, even the local application of Q-10 in the form of creams or gels has even proven useful. It is critical that sufficient amounts of the ubiquinones or ubiquinone precursors arrive at the place in which the pain caused by disturbances of the signal transmission of the nerve system has its origin.

COC1=C(OC)C(=O)C(C/C=C(\C)CC/C=C(\C)CC/C=C(\C)CC/C=C(\C)CC/C=C(\C)CC/C=C(\C)CC/C=C(\C)CC/C=C(\C)CC/C=C(\C)CCC=C(C)C)=C(C)C1=O [Q-10, 2,3-dimethoxy-5-methyl-6-decaprenyl-1,4-benzoquinone]
treatment of migraine ([1]; oral administration, high doses): only with very limited success | elimination of migraine pain ([1]; oral and nasal sprays, small amounts): fast and effective elimination of migraine pain | results in migraine pain ([1]; sprays, doses of about 20 mg): Good results | treatment of herpes zoster pain [2]: proven useful
